{"source": "patent US9682953B2", "about": "“Amide compounds, compositions and applications thereof” (Advinus Therapeutics Limited, priority 2011, dated 2017)", "key": {"[1]": {"biological_target": "human Fatty Acid Amide Hydrolase (FAAH) (Homo sapiens (Human), UniProt O00519)", "sequence (O00519 30-579)": "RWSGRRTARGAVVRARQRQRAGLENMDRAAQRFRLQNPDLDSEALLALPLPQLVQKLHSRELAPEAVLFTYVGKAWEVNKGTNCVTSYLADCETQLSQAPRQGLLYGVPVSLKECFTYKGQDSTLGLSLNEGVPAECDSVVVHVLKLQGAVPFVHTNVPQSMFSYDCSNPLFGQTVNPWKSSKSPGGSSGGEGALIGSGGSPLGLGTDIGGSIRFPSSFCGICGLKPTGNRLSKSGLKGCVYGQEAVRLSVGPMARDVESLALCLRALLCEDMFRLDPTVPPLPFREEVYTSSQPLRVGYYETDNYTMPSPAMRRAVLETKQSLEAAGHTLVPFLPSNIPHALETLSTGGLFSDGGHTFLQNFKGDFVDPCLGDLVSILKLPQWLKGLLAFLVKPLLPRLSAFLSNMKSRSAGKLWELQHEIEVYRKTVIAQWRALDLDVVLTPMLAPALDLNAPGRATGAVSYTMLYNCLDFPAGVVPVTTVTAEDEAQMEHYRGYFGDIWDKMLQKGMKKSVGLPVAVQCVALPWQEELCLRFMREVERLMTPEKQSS", "assay": "biochemical", "conditions": "for inhibition at 0.1 µM: read-out: hFAAH % inhibition at 100 nM, 100 nM (tier I)"}, "[2]": {"biological_target": "rat Fatty Acid Amide Hydrolase (FAAH) (Rattus norvegicus (Rat), UniProt P97612)", "sequence (P97612 30-579)": "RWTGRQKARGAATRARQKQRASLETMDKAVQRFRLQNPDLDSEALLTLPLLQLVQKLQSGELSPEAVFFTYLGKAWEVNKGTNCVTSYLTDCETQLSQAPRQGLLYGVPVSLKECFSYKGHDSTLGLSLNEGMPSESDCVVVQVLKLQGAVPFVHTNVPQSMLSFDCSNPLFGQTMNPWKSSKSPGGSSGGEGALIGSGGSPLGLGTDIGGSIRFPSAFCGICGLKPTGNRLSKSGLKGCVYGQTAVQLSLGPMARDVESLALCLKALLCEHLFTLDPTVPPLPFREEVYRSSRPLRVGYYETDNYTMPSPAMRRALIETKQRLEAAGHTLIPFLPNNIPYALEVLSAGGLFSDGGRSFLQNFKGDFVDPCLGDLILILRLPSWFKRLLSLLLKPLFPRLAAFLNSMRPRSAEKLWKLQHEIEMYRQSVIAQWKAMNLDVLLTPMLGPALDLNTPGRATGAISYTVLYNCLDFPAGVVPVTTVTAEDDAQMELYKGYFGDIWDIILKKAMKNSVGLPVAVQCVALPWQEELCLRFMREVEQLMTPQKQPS", "assay": "FAAH in vitro fluorescence assay (AAMCA hydrolysis), rat enzyme", "type": "biochemical", "conditions": "for inhibition at 0.1 µM: read-out: rFAAH % inhibition at 100 nM, 100 nM (tier I)", "how_it_was_run": "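Rat FAAH, E. coli-expressed with groEL-groES chaperone, used as enriched membrane extract with 10 μM AAMCA in 50 mM HEPES, 1 mM EDTA, 0.1% BSA, pH 7.4 (1% DMSO final).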"}, "[3]": {"conditions": "human FAAH, read-out: hFAAH IC50"}}, "note": "Where two headings read alike, the source gives them in different places.", "data": [{"smiles": "Nc1ccc(C(=O)NC2CCC(=Cc3cccc(Oc4ccc(C(F)(F)F)c(C5CC5)n4)c3)CC2)cn1", "note": "(stereo not drawn) [Example 2.E-19, 6-Amino-N-[4-[[3-[[6-cyclopropyl-5-(trifluoromethyl)-2-pyridyl]oxy]phenyl]methylene]cyclohexyl]pyridine-3-carboxamide]", "values": [{"measurement": "inhibition at 0.1 µM", "setting": "[1]; human FAAH", "result": 40, "unit": "%"}, {"measurement": "inhibition at 0.1 µM", "setting": "[2]; rat FAAH", "result": 40, "unit": "%"}]}, {"smiles": "Nc1ccc(C(=O)NC2CCC(=Cc3cccc(Oc4ccc(C(F)(F)F)c(Cl)n4)c3)CC2)cn1", "note": "(stereo not drawn) [Example 2.E-20, 6-Amino-N-[4-[[3-[[6-chloro-5-(trifluoromethyl)-2-pyridyl]oxy]phenyl]methylene]cyclohexyl]pyridine-3-carboxamide]", "values": [{"measurement": "IC50", "setting": "[1]; [3]", "result": 3, "unit": "nM"}, {"measurement": "IC50", "setting": "[2]; rat FAAH, read-out: rFAAH IC50", "result": 71, "unit": "nM"}]}, {"smiles": "Cc1nc(Oc2cccc(C=C3CCC(NC(=O)c4cnc(N)nc4)CC3)c2)ccc1C(F)(F)F", "note": "(stereo not drawn) [Example 2.E-22, 2-Amino-N-[4-[[3-[[6-methyl-5-(trifluoromethyl)-2-pyridyl]oxy]phenyl]methylene]cyclohexyl]pyrimidine-5-carboxamide]", "values": [{"measurement": "IC50", "setting": "[1]; [3]", "result": 2, "unit": "nM"}, {"measurement": "IC50", "setting": "[2]; rat FAAH, read-out: rFAAH IC50", "result": 21, "unit": "nM"}]}, {"smiles": "Cc1cc(C(=O)NC2CCC(=Cc3cccc(Oc4ccc(C(F)(F)F)c(C)n4)c3)CC2)cnc1N", "note": "(stereo not drawn) [Example 2.E-23, 6-Amino-5-methyl-N-[4-[[3-[[6-methyl-5-(trifluoromethyl)-2-pyridyl]oxy]phenyl]methylene]cyclohexyl]pyridine-3-carboxamide]", "values": [{"measurement": "IC50", "setting": "[1]; [3]", "result": 12, "unit": "nM"}, {"measurement": "IC50", "setting": "[2]; rat FAAH, read-out: rFAAH IC50", "result": 65, "unit": "nM"}]}, {"smiles": "CCc1nc(Oc2cccc(C=C3CCC(NC(=O)c4ccc(N)nc4)CC3)c2)ccc1C(F)(F)F", "note": "(stereo not drawn) [Example 2.E-24, 6-Amino-N-[4-[[3-[[6-ethyl-5-(trifluoromethyl)-2-pyridyl]oxy]phenyl]methylene]cyclohexyl]pyridine-3-carboxamide]", "values": [{"measurement": "IC50", "setting": "[1]; [3]", "result": 34, "unit": "nM"}, {"measurement": "inhibition at 0.1 µM", "setting": "[2]; rat FAAH", "result": 47, "unit": "%"}]}, {"smiles": "Cc1cc(C(=O)NC2CCC(=Cc3cccc(Oc4ccc(Cl)c(C)n4)c3)CC2)cnc1N", "note": "(stereo not drawn) [Example 2.E-25, 6-Amino-N-[4-[[3-[(5-chloro-6-methyl-2-pyridyl)oxy]phenyl]methylene]cyclohexyl]-5-methyl-pyridine-3-carboxamide]", "values": [{"measurement": "IC50", "setting": "[1]; [3]", "result": 7, "unit": "nM"}, {"measurement": "IC50", "setting": "[2]; rat FAAH, read-out: rFAAH IC50", "result": 32, "unit": "nM"}]}, {"smiles": "Cc1nc(Oc2cccc(C=C3CCC(NC(=O)c4cnc(N)nc4)CC3)c2)ccc1Cl", "note": "(stereo not drawn) [Example 2.E-27, 2-Amino-N-[4-[[3-[(5-chloro-6-methyl-2-pyridyl)oxy]phenyl]methylene]cyclohexyl]pyrimidine-5-carboxamide]", "values": [{"measurement": "IC50", "setting": "[1]; [3]", "result": 1, "unit": "nM"}, {"measurement": "IC50", "setting": "[2]; rat FAAH, read-out: rFAAH IC50", "result": 17, "unit": "nM"}]}, {"smiles": "N#Cc1nc(Oc2cccc(C=C3CCC(NC(=O)c4ccc(N)nc4)CC3)c2)ccc1C(F)(F)F", "note": "(stereo not drawn) [Example 2.E-28, 6-Amino-N-[4-[[3-[[6-cyano-5-(trifluoromethyl)-2-pyridyl]oxy]phenyl]methylene]cyclohexyl]pyridine-3-carboxamide]", "values": [{"measurement": "IC50", "setting": "[1]; [3]", "result": 6, "unit": "nM"}, {"measurement": "IC50", "setting": "[2]; rat FAAH, read-out: rFAAH IC50", "result": 75, "unit": "nM"}]}, {"smiles": "Nc1ncc(C(=O)NC2CCC(=Cc3cccc(Oc4ccc(C(F)(F)F)cn4)c3)CC2)cc1Cl", "note": "(stereo not drawn) [Example 4.A-3, 6-Amino-5-chloro-N-[4-[[3-[[5-(trifluoromethyl)-2-pyridyl]oxy]phenyl]methylene]cyclohexyl]pyridine-3-carboxamide]", "values": [{"measurement": "IC50", "setting": "[1]; hFAAH IC50", "result": 3, "unit": "nM"}, {"measurement": "IC50", "setting": "[2]", "result": 16, "unit": "nM"}]}, {"smiles": "CN(C)c1ccc(C(=O)NC2CCC(=Cc3cccc(Oc4ccc(C(F)(F)F)cn4)c3)CC2)cn1", "note": "(stereo not drawn) [Example 5.1, 6-(Dimethylamino)-N-[4-[[3-[[5-(trifluoromethyl)-2-pyridyl]oxy]-phenyl]methylene]cyclohexyl]pyridine-3-carboxamide]", "values": [{"measurement": "IC50", "setting": "[1]; read-out: hFAAH IC50", "result": 7, "unit": "nM"}, {"measurement": "IC50", "setting": "[2]; rat FAAH, read-out: rFAAH IC50", "result": 13, "unit": "nM"}]}, {"smiles": "CNc1ccc(C(=O)NC2CCC(=Cc3cccc(Oc4ccc(C(F)(F)F)cn4)c3)CC2)cn1", "note": "(stereo not drawn) [Example 5.A-1, 6-(Methylamino)-N-[4-[[3-[[5-(trifluoromethyl)-2-pyridyl]oxy]phenyl]methylene]cyclohexyl]pyridine-3-carboxamide]", "values": [{"measurement": "IC50", "setting": "[1]; read-out: hFAAH IC50", "result": 4, "unit": "nM"}, {"measurement": "IC50", "setting": "[2]; rat FAAH, read-out: rFAAH IC50", "result": 11, "unit": "nM"}]}, {"smiles": "O=C(NC1CCC(=Cc2cccc(Oc3ccc(C(F)(F)F)cn3)c2)CC1)c1ccc(N2CCCC2)nc1", "note": "(stereo not drawn) [Example 5.A-2, 6-Pyrrolidin-1-yl-N-[4-[[3-[[5-(trifluoromethyl)-2-pyridyl]oxy]phenyl]methylene]cyclohexyl]pyridine-3-carboxamide]", "values": [{"measurement": "inhibition at 0.1 µM", "setting": "[1]; human FAAH", "result": 54, "unit": "%"}, {"measurement": "IC50", "setting": "[2]; rat FAAH, read-out: rFAAH IC50", "result": 28, "unit": "nM"}]}, {"smiles": "O=C(NC1CCC(=Cc2cccc(Oc3ccc(C(F)(F)F)cn3)c2)CC1)c1ccc(-n2cccn2)nc1", "note": "(stereo not drawn) [Example 5.A-6, 6-Pyrazol-1-yl-N-[4-[[3-[[5-(trifluoromemyl)-2-pyridyl]oxy]phenyl]methylene]cyclohexyl]pyridine-3-carboxamide]", "values": [{"measurement": "IC50", "setting": "[1]; read-out: hFAAH IC50", "result": 7, "unit": "nM"}, {"measurement": "IC50", "setting": "[2]; rat FAAH, read-out: rFAAH IC50", "result": 7, "unit": "nM"}]}, {"smiles": "CCN(C)c1ccc(C(=O)NC2CCC(=Cc3cccc(Oc4ccc(C(F)(F)F)cn4)c3)CC2)cn1", "note": "(stereo not drawn) [Example 5.A-7, 6-[Ethyl(methyl)amino]-N-[4-[[3-[[5-(trifluoromethyl)-2-pyridyl]oxy]phenyl]methylene]cyclohexyl]pyridine-3-carboxamide]", "values": [{"measurement": "IC50", "setting": "[1]; [3]", "result": 128, "unit": "nM"}, {"measurement": "IC50", "setting": "[2]; rat FAAH, read-out: rFAAH IC50", "result": 15, "unit": "nM"}]}, {"smiles": "CC(CO)Nc1ccc(C(=O)NC2CCC(=Cc3cccc(Oc4ccc(C(F)(F)F)cn4)c3)CC2)cn1", "note": "(stereo not drawn) [Example 5.A-8, 6-[(2-Hydroxy-1-methyl-ethyl)amino]-N-[4-[[3-[[5-(trifluoromethyl)-2-pyridyl]oxy]phenyl]methylene]cyclohexyl]pyridine-3-carboxamide]", "values": [{"measurement": "IC50", "setting": "[1]; [3]", "result": 16, "unit": "nM"}, {"measurement": "IC50", "setting": "[2]; rat FAAH, read-out: rFAAH IC50", "result": 32, "unit": "nM"}]}, {"smiles": "O=C(NC1CCC(=Cc2cccc(Oc3ccc(C(F)(F)F)cn3)c2)CC1)c1ccc(NC2CC2)nc1", "note": "(stereo not drawn) [Example 5.A-10, 6-(Cyclopropylamino)-N-[4-[[3-[[5-(trifluoromethyl)-2-pyridyl]oxy]phenyl]methylene]cyclohexyl]pyridine-3-carboxamide]", "values": [{"measurement": "IC50", "setting": "[1]; [3]", "result": 25, "unit": "nM"}, {"measurement": "IC50", "setting": "[2]; rat FAAH, read-out: rFAAH IC50", "result": 74, "unit": "nM"}]}, {"smiles": "CCOc1ccc(C(=O)NC2CCC(=Cc3cccc(Oc4ccc(C(F)(F)F)cn4)c3)CC2)cn1", "note": "(stereo not drawn) [Example 6.1, 6-Ethoxy-N-[4-[[3-[[5-(trifluoromethyl)-2-pyridyl]oxy]phenyl]-methylene]cyclohexyl]pyridine-3-carboxamide]", "values": [{"measurement": "IC50", "setting": "[1]; [3]", "result": 10, "unit": "nM"}, {"measurement": "IC50", "setting": "[2]; rat FAAH, read-out: rFAAH IC50", "result": 8, "unit": "nM"}]}, {"smiles": "O=C(O)Cn1cc(-c2ccc(C(=O)NC3CCC(=Cc4cccc(Oc5ccc(C(F)(F)F)cn5)c4)CC3)cn2)cn1", "note": "(stereo not drawn) [Example 8.A-1, 2-[4-[5-[[4-[[3-[[5-(Trifluoromethyl)-2-pyridyl]oxy]phenyl]methylene]cyclohexyl]carbamoyl]-2-pyridyl]pyrazol-1-yl]acetic acid]", "values": [{"measurement": "inhibition at 0.1 µM", "setting": "[1]; human FAAH", "result": 72, "unit": "%"}, {"measurement": "inhibition at 0.1 µM", "setting": "[2]; rat FAAH", "result": 15, "unit": "%"}]}, {"smiles": "O=C(O)c1cnn(-c2ccc(C(=O)NC3CCC(=Cc4cccc(Oc5ccc(C(F)(F)F)cn5)c4)CC3)cn2)c1", "note": "(stereo not drawn) [Example 8.A-4, 1-[5-[[4-[[3-[[5-(Trifluoromethyl)-2-pyridyl]oxy]phenyl]methylene]cyclohexyl]carbamoyl]-2-pyridyl]pyrazole-4-carboxylic acid]", "values": [{"measurement": "IC50", "setting": "[1]; hFAAH IC50", "result": 27, "unit": "nM"}, {"measurement": "inhibition at 0.1 µM", "setting": "[2]; rat FAAH", "result": 15, "unit": "%"}]}, {"smiles": "Nc1cc(C(=O)NC2CCC(=Cc3cccc(Oc4ccc(C(F)(F)F)cn4)c3)CC2)cnc1Cl", "note": "(stereo not drawn) [Example 10.1, 5-Amino-6-chloro-N-[4-[[3-[[5-(trifluoromethyl)-2-pyridyl]oxy]-phenyl]methylene]cyclohexyl]pyridine-3-carboxamide]", "values": [{"measurement": "IC50", "setting": "[1]; hFAAH IC50", "result": 1, "unit": "nM"}, {"measurement": "IC50", "setting": "[2]", "result": 6, "unit": "nM"}]}, {"smiles": "O=C(NC1CCC(=Cc2cccc(Oc3ccc(C(F)(F)F)cn3)c2)CC1)c1ccc(-c2nnn[nH]2)nc1", "note": "(stereo not drawn) [Example 11.1, 6-(1H-Tetrazol-5-yl)-N-[4-[[3-[[5-(trifluoromethyl)-2-pyridyl]oxy]-phenyl]methylene]cyclohexyl]pyridine-3-carboxamide]", "values": [{"measurement": "IC50", "setting": "[1]; read-out: hFAAH IC50", "result": 12, "unit": "nM"}, {"measurement": "inhibition at 0.1 µM", "setting": "[2]; rat FAAH", "result": 50, "unit": "%"}]}]}
